Like-named read-outs stand apart in the source and are kept apart here.
How the values were obtained:
[1] = Ascending dose study in mice; type: in vivo, mouse; conditions: mice, 10, 30, 60 mg/kg intraperitoneal
Experimental: To begin to assess […] pharmacodynamics properties, an ascending dose study (10, 30, 60 mg/kg, intraperitoneal injection) was performed in mice.

Thyroid hormone = assay: Radioligand displacement (Ricerca); type: binding, human; conditions: 10 μM
[2] = In vivo pharmacokinetic study, IP in mice; conditions: mouse, intraperitoneal 10 mg/kg
Experimental: In Vivo Pharmacokinetic Study. Compound(s) were formulated in 10% Tween80 in sterile water at the concentration of 3.33 mg/mL and administered IP to male C57 BL6 mice weighing 20 to 25 g (Harlan, Indianapolis, Ind.) at the dose of 10 mg/kg. The blood (cardiac puncture) and brain were collected at 0.5, 1, 3, and 6 hr. Animals were euthanized and decapitated, and the brains were removed, thoroughly washed in cold phosphate-buffered saline, and immediately frozen on dry ice. Plasma was separated by centrifugation (4000 rcf, 4° C.) and stored at −80° C. until analysis. On the day of analysis, frozen whole-[…] brains were weighed and diluted with 1:3 (w/w) parts of 70:30 isopropanol:water. The mixture was then subjected to mechanical homogenation employing a Mini-Beadbeater™ and 1.0 mm Zirconia/Silica Beads (BioSpec Products) followed by centrifugation. The sample extraction of plasma (20 μL) or brain homogenate (20 μL) was performed by a method based on protein precipitation using three volumes of ice-cold acetonitrile containing an internal standard (50 ng/mL carbamazepine). The samples were centrifuged (3000 rcf, 5 min) and supernatants transferred and diluted 1:1 (supernatant: water) into a new 96 well plate, which was then sealed in preparation for LC/MS/MS analysis.
LC/MS/MS Bioanalysis of Samples from In Vivo Studies. In vivo samples were analyzed via electrospray ionization (ESI) on an AB Sciex QTrap 5500 (Foster City, Calif.) triple-quadrupole linear ion trap instrument that was coupled with Shimadzu LC-20AD pumps (Columbia, Md.) and a Leap Technologies CTC PAL auto-sampler (Carrboro, N.C.). Analytes were separated by gradient elution using a Fortis C18 2.1×50 mm, 3 μm column (Fortis Technologies Ltd, Cheshire, UK) at 40° C. HPLC mobile phase A was 0.1% formic acid in water (pH unadjusted), mobile phase B was 0.1% formic acid in acetonitrile (pH unadjusted). […] The total run time was 2.5 min and the HPLC flow rate was 0.5 mL/min. The source temperature was set at 500° C. and mass spectral analyses were performed using multiple reaction monitoring (MRM), with transitions specific for each compound utilizing a Turbo-Ionspray® source in positive ionization mode (5.0 kV spray voltage). The calibration curves were constructed, and linear response was obtained in the range of 0.5 to 5,000 ng/mL, by spiking known amounts of […] in blank brain homogenate or plasma. All data were analyzed using AB Sciex Analyst software v1.5.1. The final PK parameters were calculated by noncompartmental analysis using Phoenix (version 6.2) (Pharsight Inc., Mountain View, Calif.).

Opiate (KOP) = biological target: T1, Opiate (KOP) (Homo sapiens, UniProt P41145); assay: Radioligand displacement (Ricerca); type: binding
T1 construct: Ricerca (contract laboratory that ran the panel)
T1 sequence (P41145 whole entry): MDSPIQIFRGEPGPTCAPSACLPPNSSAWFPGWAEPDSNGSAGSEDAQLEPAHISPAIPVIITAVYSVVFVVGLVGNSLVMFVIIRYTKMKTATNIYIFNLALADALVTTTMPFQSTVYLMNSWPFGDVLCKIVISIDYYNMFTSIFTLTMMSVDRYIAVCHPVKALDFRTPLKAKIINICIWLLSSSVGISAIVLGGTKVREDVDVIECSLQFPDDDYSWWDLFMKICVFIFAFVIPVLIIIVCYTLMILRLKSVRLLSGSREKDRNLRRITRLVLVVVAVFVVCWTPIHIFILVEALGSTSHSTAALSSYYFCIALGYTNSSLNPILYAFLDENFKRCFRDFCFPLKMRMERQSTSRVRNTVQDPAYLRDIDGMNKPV

Question: Which appearance of animals [1] does the source give for `Cc1cc(NC(=O)Nc2ccc(F)c(F)c2)n(-c2ccccc2)n1` [VU0456810, 1-(3,4-difluorophenyl)-3-(3-methyl-1-phenyl-1H-pyrazol-5-yl)urea] here?
Answer: appeared normal and not under obvious distress

Question: What about the “% Inhibition” value (Thyroid hormone) of the same molecule?
Answer: 8%

Question: What about the Kp at 0.5 h ([2]; male, C57 BL6, brain/plasma, ip, 30 min after administration) of the same molecule?
Answer: 0.2

Question: And the concentration at 30 min ([2]; male, C57 BL6, brain, 30 min after administration, read-out: Brain concentration)?
Answer: 500 nM

Question: What about the half-life ([2]; male, C57 BL6, plasma, ip) of the same molecule?
Answer: 20 min

Question: And the concentration at 30 min ([2]; male, C57 BL6, plasma, 30 min after administration, read-out: Plasma concentration)?
Answer: 2300 nM

Question: And the Plasma concentration ([2]; 30 min after administration)?
Answer: 2300 nM

Question: What about the concentration at 30 min ([2]; 30 min after administration, read-out: Brain concentration) of the same molecule?
Answer: 500 nM

Question: What about the inhibition at 10 µM (Opiate (KOP)) of the same molecule?
Answer: 1%

From patent US9067894B1, “Compound, composition, and method of activating GIRK potassium channel and use of same for treating conditions of interest” (Vanderbilt University, priority 2013, dated 2015)
